Data set [1] is described as follows: Solubility data in solvents. Type of data set: physicochemical. Particulars: for solubility: organic solvent or mixture.
Data set [2] is described as follows: Stability of process solutions / solid on drying over days (HPLC area %). It is filed as physicochemical.

≈ marks a conversion by molar mass, not a printed value. Where “and” joins values, the source holds several entries; their conditions need not be identical. Equal values may be shown once. A value given as a limit tells only on which side of the number the result lay.

The solubility is how much of the substance goes into solution per volume. Consider `COc1c(Cl)cccc1Nc1c(-c2ccncc2Br)[nH]c2c1C(=O)N(C(=O)OC(C)(C)C)CC2` [Compound 101, tert-butyl 2-(3-bromopyridin-4-yl)-3-((3-chloro-2-methoxyphenyl)amino)-4-oxo-1,4,6,7-tetrahydro-5H-pyrrolo[3,2-c]pyridine-5-carboxylate], for which the solubility was 33 mg/mL (≈ 60.2 mM) in data set [1] (solvent ACN); more than 125 mg/mL in data set [1] (solvent DCM); 6.25 mg/mL (≈ 11.4 mM) in data set [1] (solvent EtOAc); 6.25 mg/mL (≈ 11.4 mM) in data set [1] (solvent EtOH); 6.25 mg/mL (≈ 11.4 mM) in data set [1] (solvent MTBE); 7.1 mg/mL (≈ 13 mM) in data set [1] (solvent MeOH). Further, the solubility in data set [1] (solvent n-heptane) and in data set [1] (solvent toluene) was less than 5 mg/mL throughout.
Turning to `COc1c(Cl)cccc1Nc1c(-c2ccncc2Br)[nH]c2c1C(=O)NCC2` [Compound 102, 2-(3-bromopyridin-4-yl)-3-((3-chloro-2-methoxyphenyl)amino)-1,5,6,7-tetrahydro-4H-pyrrolo[3,2-c]pyridin-4-one], in data set [1] (5 V of DCM, MeCN, MTBE, THF, MeOH, EtOAc or toluene at reflux), the “Dissolution in crystallization solvents” value is “has not been dissolved in all these solvents at reflux except for THE”. Further, the solubility is 5 mg/mL (≈ 11.2 mM) in data set [1] (solvent 2-MeTHF); more than 200 mg/mL in data set [1] (solvent DMAC); more than 100 mg/mL in data set [1] (solvent DMF); more than 100 mg/mL in data set [1] (solvent DMSO); 94 mg/mL (≈ 210 mM) in data set [1] (solvent HFIP); 2 mg/mL (≈ 4.47 mM) in data set [1] (solvent MeCN). For the same compound, the solubility in data set [1] (solvent NMP) is more than 100 mg/mL; in data set [1] (solvent TFE), 79 mg/mL (≈ 176 mM); in data set [1] (solvent THE) it was 31 mg/mL (≈ 69.2 mM).
`COc1c(Cl)cccc1NC(=S)C1=C(O)CCN(C(=O)OC(C)(C)C)C1=O` [Compound 2, tert-butyl 5-((3-chloro-2-methoxyphenyl)carbamothioyl)-4-hydroxy-6-oxo-3,6-dihydropyridine-1(2H)-carboxylate]: the “Area % after hold” value was 90.1 A % in data set [2] (IPAC solution pH = 5-6, 20 ± 5 C., 0 d); 89.8 A % in data set [2] (IPAC solution pH = 5-6, 20 ± 5 C., 1 d); 90.9 A % in data set [2] (IPAC solution pH = 5-6, 20 ± 5 C., 3 d); 87.3% in data set [2] (IPAC solution, 25 ± 5 C., 0 d); 88.7% and 86.0% in data set [2] (IPAC solution, 25 ± 5 C., 1 d, listed as Comp. 2); 86.5% and 85.6% in data set [2] (IPAC solution, 25 ± 5 C., 2 d, listed as Comp. 2). Besides, the “Area % after hold” value in data set [2] (IPAC solution, 25 ± 5 C., 3 d, listed as Comp. 2) was 85.2% and 83.5%; in data set [2] (IPAC solution, 40 ± 5 C., 0 d) it was 90.1 A %; in data set [2] (IPAC solution, 40 ± 5 C., 1 d, listed as Comp. 2), 88.6 A % and 87.7 A %; in data set [2] (IPAC solution, 40 ± 5 C., 3 d, listed as Comp. 2) it was 84.7 A % and 80.0%; in data set [2] (on drying, 45 ± 5 C., 0 d), 99.7 A %; in data set [2] (on drying, 45 ± 5 C., 3 d), 99.8%. Also, the solubility in data set [1] (solvent ACN) was 33 mg/mL (≈ 79.9 mM); in data set [1] (solvent DCM) it was more than 200 mg/mL; in data set [1] (solvent EtOAc) it was 100 mg/mL (≈ 242 mM); in data set [1] (solvent EtOH) it was less than 5 mg/mL; in data set [1] (solvent MTBE), 28 mg/mL (≈ 67.8 mM); in data set [1] (solvent MeOH) it was 5 mg/mL (≈ 12.1 mM). Further, in data set [1] (solvent n-heptane), the solubility was less than 5 mg/mL.
Regarding `COc1c(Cl)cccc1N=C=S` [Compound 1, 1-chloro-3-isothiocyanato-2-methoxybenzene], the “Area % after hold” value came to 96.0 A % in data set [2] (IPAC solution, 40 ± 5 C., 1 d); 95.9 A % in data set [2] (IPAC solution, 40 ± 5 C., 2 d); 94.3 A % in data set [2] (IPAC solution, 40 ± 5 C., 3 d); 95.5 A % in data set [2] (IPAC solution, 50 ± 5 C., 1 d); 94.7 A % in data set [2] (IPAC solution, 50 ± 5 C., 2 d); 90.5 A % in data set [2] (IPAC solution, 50 ± 5 C., 3 d).

Source of the values: patent US20250197391A1, “METHODS OF SYNTHESIZING EGFR INHIBITORS” (Scorpion Therapeutics, Inc., priority 2022, published 2025).
